Laboratory results reported in PubChem BioAssay (NCI).
“And” between values parts separate entries of the source, which are not always exact repeats. Equal entries are not always repeated.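 Cells were grown in 96-well plates and exposed to each compound for 48 hours at five concentrations; endpoints were interpolated linearly between bracketing concentrations, or set to the highest concentration if not reached. At the GI50, growth is halved. TGI: concentration producing complete growth inhibition.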

Experiments:
Test in all cases: NCI tumour cell line growth inhibition, 48 h
[1] = test system: NCI/ADR-RES ovarian
[2] = test system: SNB-75 CNS
[3] = test system: CAKI-1 renal
[4] = test system: HCT-116 colon
[5] = test system: PC-3 prostate
[6] = test system: A498 renal
[7] = test system: KM20L2 colon
[8] = test system: NCI-H23 lung
[9] = test system: HOP-18 NSCLC
[10] = test system: T-47D breast
[11] = test system: HOP-62 NSCLC
[12] = test system: SK-OV-3 ovarian
[13] = test system: UACC-62 melanoma
[14] = test system: RPMI-8226 leukemia
[15] = test system: DMS 114 small cell lung
[16] = test system: SN12C renal
[17] = test system: M19-MEL melanoma
[18] = test system: 786-0 renal
[19] = test system: HCT-15 colon
[20] = test system: SK-MEL-5 melanoma
[21] = test system: SR leukemia
[22] = test system: RXF 393 renal
[23] = test system: DMS 273 small cell lung
[24] = test system: DLD-1 colon
[25] = test system: HCC-2998 colon
[26] = test system: MALME-3M melanoma
[27] = test system: HL-60(TB) leukemia
[28] = test system: HOP-92 NSCLC
[29] = test system: TK-10 renal
[30] = test system: K-562 leukemia
[31] = test system: OVCAR-5 ovarian
[32] = test system: MDA-MB-435
[33] = test system: U251 CNS
[34] = test system: NCI-H226 lung
[35] = test system: OVCAR-4 ovarian
[36] = test system: SNB-78 CNS
[37] = test system: IGROV1 ovarian
[38] = test system: EKVX NSCLC
[39] = test system: LXFL 529 NSCLC
[40] = test system: DU-145 prostate
[41] = test system: SK-MEL-2 melanoma
[42] = test system: ACHN renal
[43] = test system: SF-295 CNS
[44] = test system: MOLT-4 leukemia
[45] = test system: MDA-N
[46] = test system: UO-31 renal
[47] = test system: MCF7 breast
[48] = test system: SF-268 CNS
[49] = test system: SF-539 CNS
[50] = test system: NCI-H522 lung
[51] = test system: A549 NSCLC
[52] = test system: LOX IMVI melanoma
[53] = test system: COLO 205 colon
[54] = test system: XF 498 CNS
[55] = test system: M14 melanoma
[56] = test system: OVCAR-8 ovarian
[57] = test system: OVCAR-3 ovarian
[58] = test system: HS 578T breast
[59] = test system: HT29 colon
[60] = test system: UACC-257 melanoma
[61] = test system: BT-549 breast
[62] = test system: NCI-H460 lung
[63] = test system: SW-620 colon
[64] = test system: MDA-MB-231 breast
[65] = test system: SK-MEL-28 melanoma
[66] = test system: RXF-631 renal
[67] = test system: SNB-19 CNS
[68] = test system: KM12 colon
[69] = test system: CCRF-CEM leukemia

SMILES: CC[C@@]1(OC(=O)CN(C)C)C(=O)OCc2c1cc1n(c2=O)Cc2cc3ccccc3nc2-1
- GI50 [1]: 37.7 nM
- GI50 [2]: 47.5 nM
- TGI [2]: 5800 nM and 4300 nM
- TGI [3]: 2400 nM and 806 nM
- GI50 [4]: 39.1 nM
- GI50 [5]: 476 nM
- GI50 [6]: 85.1 nM
- TGI [6]: 984 nM and 317 nM
- TGI [7]: 4940 nM
- GI50 [8]: 20.7 nM
- TGI [8]: 342 nM and 381 nM
- GI50 [9]: 113 nM
- GI50 [10]: 4.98 nM and 45.1 nM
- TGI [10]: 320 nM and 2030 nM
- TGI [11]: 1360 nM
- GI50 [12]: 123 nM
- TGI [12]: 2880 nM
- GI50 [13]: < 12 nM
- TGI [13]: 116 nM and 132 nM
- GI50 [14]: 4.64 nM
- TGI [15]: 1530 nM
- TGI [16]: 4030 nM and 892 nM
- GI50 [17]: 101 nM
- TGI [17]: 2130 nM and 1090 nM
- TGI [18]: 1110 nM and 125 nM
- GI50 [19]: 257 nM
- TGI [19]: 5030 nM and 3090 nM
- GI50 [20]: 37.9 nM
- TGI [20]: 316 nM and 213 nM
- GI50 [21]: 2.09 nM
- TGI [21]: 114 nM and < 42.7 nM
- GI50 [22]: 66.5 nM
- TGI [22]: 643 nM and 430 nM
- TGI [23]: 149 nM
- GI50 [24]: 806 nM
- TGI [24]: 30400 nM
- GI50 [25]: 322 nM
- TGI [25]: 1320 nM and 1760 nM
- GI50 [26]: 293 nM
- TGI [26]: 4960 nM and 4890 nM
- GI50 [27]: 28.2 nM
- TGI [27]: 389 nM and 179 nM
- GI50 [28]: 216 nM
- TGI [28]: 944 nM and 2190 nM
- GI50 [29]: 481 nM
- TGI [29]: 7850 nM
- GI50 [30]: 108 nM
- TGI [30]: 7670 nM and > 41500 nM
- GI50 [31]: 184 nM
- TGI [31]: 2930 nM and 5920 nM
- TGI [32]: 1540 nM
- GI50 [33]: < 17.5 nM
- TGI [33]: 958 nM and 425 nM
- TGI [34]: 420 nM and 445 nM
- GI50 [35]: 205 nM
- TGI [35]: 5610 nM and 733 nM
- GI50 [36]: 957 nM
- TGI [36]: > 100000 nM
- GI50 [37]: 217 nM
- TGI [37]: 4430 nM and > 23300 nM
- GI50 [38]: 1880 nM
- GI50 [39]: 577 nM
- TGI [39]: 5020 nM and 3350 nM
- GI50 [40]: 20.7 nM
- TGI [40]: 246 nM and 484 nM
- GI50 [41]: 1090 nM
- TGI [41]: 3470 nM and 5340 nM
- TGI [42]: 273 nM
- GI50 [43]: < 12.7 nM
- TGI [43]: 673 nM and 938 nM
- TGI [44]: 318 nM and 344 nM
- TGI [45]: 1920 nM and 3800 nM
- GI50 [46]: 18.1 nM
- TGI [46]: 231 nM and 107 nM
- GI50 [47]: 23.5 nM
- TGI [47]: > 100000 nM
- GI50 [48]: 46.4 nM
- GI50 [49]: < 16.7 nM
- TGI [49]: 57.2 nM and 315 nM
- GI50 [50]: 39.6 nM
- TGI [50]: 3450 nM and 1680 nM
- GI50 [51]: 42 nM
- TGI [51]: 4330 nM and 7120 nM
- GI50 [52]: < 16.1 nM
- TGI [52]: 285 nM and 218 nM
- GI50 [53]: 288 nM
- TGI [53]: 6300 nM
- TGI [54]: 3190 nM
- GI50 [55]: 42.4 nM
- TGI [55]: 574 nM and 559 nM
- GI50 [56]: 52.1 nM
- GI50 [57]: 356 nM
- TGI [57]: 2150 nM and 1730 nM
- GI50 [58]: 3530 nM
- TGI [58]: > 100000 nM
- GI50 [59]: 156 nM
- GI50 [60]: 131 nM
- TGI [60]: 1120 nM and 1310 nM
- GI50 [61]: 116 nM
- TGI [61]: 4090 nM and 8640 nM
- TGI [62]: 147 nM
- GI50 [63]: 160 nM
- GI50 [64]: 1440 nM
- TGI [64]: > 100000 nM
- GI50 [65]: 1010 nM

SMILES: COc1cc(CC(=O)c2ccc3c(c2)OCO3)cc(OC)c1OC
- TGI [66]: > 100000 nM
- TGI [2]: > 100000 nM
- TGI [3]: > 100000 nM
- TGI [4]: > 100000 nM
- TGI [6]: > 100000 nM
- TGI [7]: > 100000 nM
- TGI [8]: > 100000 nM
- TGI [9]: > 100000 nM
- TGI [11]: > 100000 nM
- TGI [12]: > 100000 nM
- TGI [67]: > 100000 nM
- TGI [13]: > 100000 nM
- TGI [14]: > 100000 nM
- TGI [15]: 92700 nM
- TGI [16]: > 100000 nM
- TGI [17]: > 100000 nM
- TGI [18]: > 100000 nM
- TGI [68]: > 100000 nM
- TGI [19]: > 100000 nM
- TGI [20]: > 100000 nM
- TGI [22]: > 100000 nM
- TGI [24]: > 100000 nM
- TGI [25]: > 100000 nM
- TGI [26]: > 100000 nM
- TGI [27]: > 100000 nM
- TGI [28]: > 100000 nM
- TGI [29]: > 100000 nM
- TGI [30]: > 100000 nM
- TGI [31]: > 100000 nM
- TGI [33]: > 100000 nM
- TGI [34]: > 100000 nM
- TGI [35]: > 100000 nM
- TGI [36]: > 100000 nM
- TGI [37]: > 100000 nM
- TGI [38]: > 100000 nM
- TGI [39]: > 100000 nM
- TGI [41]: > 100000 nM
- TGI [42]: > 100000 nM
- TGI [43]: > 100000 nM
- TGI [44]: > 100000 nM
- TGI [46]: > 100000 nM
- TGI [48]: > 100000 nM
- TGI [49]: > 100000 nM
- TGI [50]: > 100000 nM
- TGI [51]: > 100000 nM
- TGI [53]: > 100000 nM
- TGI [55]: > 100000 nM
- TGI [56]: > 100000 nM
- TGI [57]: > 100000 nM
- TGI [69]: > 100000 nM
- TGI [59]: > 100000 nM
- TGI [60]: > 100000 nM
- TGI [62]: > 100000 nM
- TGI [63]: 46300 nM
- TGI [65]: > 100000 nM
